Measurements: patent US11638427B2, “Methods and compositions for altering secondary metabolites in plants” (Impello Biosciences, Inc, priority 2020, dated 2023)

Columns and labels:
[1] = test system: hemp clones cv. Cherry in the vegetative stage; experiment: Root drench of MeJA or MDJ, phytotoxicity; assay type: in vivo, Cannabis spp.; conditions: for plants deceased in 72 hours: 250 mL, n=4; for phytotoxicity to plants in the vegetative stage: root drench, concentrations above 10 mM, within 72 hours
Description: To investigate if higher concentrations of jasmonate elicitors would be tolerated in cannabis by root drench, four different concentrations, [7.5 mM], [10 mM], [15 mM] and [20 mM] were applied to hemp clones (n=4 per treatment group, cv.: Cherry, CBDRx) in the vegetative stage. Treatment concentrations were prepared from methyl dihydrojasmonate (MDJ, TCI, CAS No.: 24851-98-7) and methyl Jasmonate (MeJA, TCI, CAS No.: […]) with 1% TWEEN®-20 added (VWR, CAS No.: […]).
The roots of each clone in each treatment group were treated with 250 mL of each compound once per week. Plants were grown under a total of 12 Boost (Thrive Agritech, NY) 130-watt LED lights set to 18L: 6D photoperiod during the vegetative phase (2 weeks) or until phytotoxicity observed.

[2] = test system: Cladosporium cladosporioides; experiment: Mold growth on jasmonate-infused plates, mold isolated from tomato; assay type: cell-based; conditions: various concentrations in plates
Description: (§1) MDJ (TCI, CAS No.: 24851-98-7) and CJ were infused into potato dextrose agar (PDA, VWR Cat No.: 90003-494) petri dishes (100×15 mm VWR, Cat No: 25384-094) at concentrations ranging from 1 mM, 4.25 mM, and 10 mM. Each treatment was prepared using a technical grade stock solution of pure chemical (CJ or MDJ) diluted with TWEEN®-20 (VWR, CAS No.: […]). Culturable oyster mushroom and seedling mold served to create fungal mycelial plugs using a sterile 1 mL pipette tip (Eppendorf, Cat No.: 022491458) held upside down. The tips were used to make circle excisions (i.e., fungal plugs) from a mycelial mat grown on PDA with no biochemical infusions. Fungal pugs were then transferred to PDA infused with varying concentrations of CJ or MDJ, and control plates (no CJ or MDJ infusion) to monitor fungal growth at room temperature over time.
Based on the above results in Cannabis spp., additional fungi from various crops was sampled and tested. Plates comprising various concentrations of MDJ or MJ were prepared as described above.

grey mold = experiment: Fungal plug growth on jasmonate-infused PDA plates; assay type: cell-based, Rhizopus stolonifera; conditions: for grey mold growth: 1 mM, 4.25 mM, 10 mM in PDA, 72 hours post inoculation
Description: as §1
A grey mold was also tested (FIGS. 10A-10D). All plates were generated and inoculated as described above and incubated at room temperature under identical conditions. Shown in […] are plates of grey mold 72 hours post fungal inoculation. Control plates are shown on the top row, followed by concentrations of MeJA (left) and MDJ (right) in duplicate at […] (FIG. 10A), 4.25 mM (FIG. 10B), and 10 mM (FIG. 10C). […] While it was initially hypothesized that the grey mod was a species of Botrytis, subsequent sequence analysis identified the mold as Rhizopus stolonifera.

[3] = test system: high-CBD hemp variety Cherry; experiment: Low-volume drone foliar applications of MeJA or MDJ on field grown high-CBD hemp, cannabinoid and terpene analysis; assay type: in vivo, Cannabis spp.; conditions: about 2 gallons per acre, at harvest; for increase in the ratio of CBD:THC compared to the Control group / alpha bisabolol change compared to the Control group: 7.5 mM; for increase in the ratio of CBD:THC compared to the Control group: morning applications about every 14 days
Excerpt: In previous foliar application experiments, plants were sprayed until the leaves were dripping. In order to assess the plant physiological response to low-volume foliar applications of two jasmonate elicitors, methyl jasmonate (MeJA) and methyl dihydro-jasmonate (MDJ), an outdoor experiment on field grown, high-CBD hemp was designed and performed during the summer of 2019 using an unmanned aerial drone as the application device. A single high-CBD hemp variety, “Cherry” (CBDRx, Longmont, Colo.) was used in an organic field plot in Pueblo, Colo., which was subdivided into four spatially separated quadrants of approximately 0.5 acres each as determined by drone and GPS mapping. Each 0.5-acre quadrant was assigned a treatment group, and the middle area of the entire plot, approximately 1 acre in area, was used as a “control” section of the field. Plants in the Control group received sprays of water and TWEEN®-20 only, identical to the treatment groups except for the exclusion of any jasmonate (i.e., [0 mM] MeJA and MDJ) active ingredients. MeJA and MDJ were applied at approximately 2 gallons per acre. In comparison, previous foliar applications wherein the plant was sprayed until the leaves dripped would equate to between 50-100 gallons per acre.
Treatments were separated into such “morning” and “evening” applications in an attempt to determine if the time of day influenced the plant response to the treatments. The four treatment groups were as follows: TIM=[7.5 mM] MDJ foliar applications in the morning; TIE=[7.5 mM] MDJ foliar applications in the evening; T2M=[7.5 mM] MeJA foliar applications in the morning; T2E [7.5 mM] MeJA foliar applications in the evening. All treatment groups were prepared the day of the application, and all applications were made successively with the same drone device. To reduce potential cross-contamination of the drone sprayer equipment, an acetic acid solution (5%) was run through the applicator equipment between each treatment application and control spray application, followed by plain water as a final rinse.
Plants were planted and allowed to grow in the normal fashion until the onset of flowering, which occurred around Jul. 25, 2019. At that point, foliar applications of the treatment were made approximately every 14 days with adjustments to the schedule as needed to avoid applying treatments on days with high winds, rain, or other suboptimal conditions for drone flight or treatment applications. Approximately every 14 days during the flowering cycle, flower samples from three randomly selected plants in each experimental group were taken, dried, and stored for analytical testing; however, the focus of this study was to determine the effect of the treatment groups versus the control group at harvest. Final flower samples were taken from 10 randomly selected plants in each experimental group on Sep. 12, 2019, labelled accordingly, dried, and sent to a third part commercial cannabis testing lab (Pro Verde, Milford, Mass.) for chemical analysis of the cannabinoids and terpene content individually using liquid chromatography (LC) and headspace gas chromatography (HS-GC), respectively. All samples were harvested on the day of a scheduled treatment prior to treatment.
Statistical analysis of the quantitative terpene data from plant samples taken at harvest was performed using R statistical software and corrected post-hoc using Tukey HSD method. For cannabinoid data from the same plant samples, ANOVA analysis was performed in Microsoft Excel with Tukey HSD post-hoc corrections.

seedling mold = experiment: Fungal plug growth on jasmonate-infused PDA plates; assay type: cell-based, Trichoderma ghanense; conditions: for seedling mold growth: 1 mM, 4.25 mM, 10 mM in PDA, 72 hours post inoculation
Description: as §1
To compare the efficacy of MDJ and MeJA at inhibiting the same seedling mold as used in the experiment above, a second experiment was conducted using PDA plates infused with either MDJ or MeJA at different concentrations. All plates were generated and inoculated as described above and incubated at room temperature under identical conditions. Shown in FIGS. 9A-9C are plates of seedling mold 72 hours post fungal inoculation. Control plates are shown on the top row, followed by concentrations of MeJA (left) and MDJ (right) in duplicate at 1 mM (FIG. 9A), 4.25 mM (FIG. 9B), and 10 mM (FIG. 9C). […] Subsequent sequence analysis identified the “seedling mold” as Trichoderma ghanense.

[4] = at the 1 mM concentration, 72 hours

## CCCCCC1C(=O)CCC1CC(=O)OC (stereo not shown) [MDJ, methyl dihydrojasmonate]
[1]; root drench 10 mM
  plants deceased in 72 hours: three out of four
[1]; root drench 15 mM
  plants deceased in 72 hours: all four
[1]; root drench 20 mM
  plants deceased in 72 hours: all four
[1]
  phytotoxicity to plants in the vegetative stage: phytotoxic
[2]
  growth of mold isolated from tomato: effective at preventing the growth
Grey mold
  grey mold growth: inhibited
Grey mold; [4]
  efficacy at inhibiting grey mold, MDJ compared with MeJA: more effective
[3]
  increase in the ratio of CBD:THC compared to the Control group: 2.53%
  alpha bisabolol change compared to the Control group: 17.2%
[3]; Treatment 1, 7.5 mM
  alpha-humulene increase compared to the Control group: 3.15%
  beta-caryophyllene increase compared to the Control group: 3.3%
  guaiol increase compared to the Control group: 5.66%
  trans-nerolidol increase compared to the Control group: 66.66%
Seedling mold
  seedling mold growth: inhibited
Seedling mold; all concentrations (1 mM, 4.25 mM, 10 mM) in PDA, 72 hours and 10 days
  seedling mold growth compared to control: showed inhibition
Seedling mold; [4]
  efficacy at inhibiting seedling mold, MDJ compared with MeJA: more effective

## CC/C=C\C[C@H]1C(=O)CC[C@@H]1CC(=O)OC [MeJA, Methyl Jasmonate]
[1]; root drench 15 mM
  plants deceased in 72 hours: three out of four
[1]; root drench 20 mM
  plants deceased in 72 hours: three out of four
[1]
  phytotoxicity to plants in the vegetative stage: phytotoxic
[2]
  growth of mold isolated from tomato: effective at preventing the growth
Grey mold
  grey mold growth: inhibited
Grey mold; at 4.25 mM and 10 mM concentrations, 72 hours
  efficacy at inhibiting grey mold, MeJA compared with MDJ: more effective
[3]
  increase in the ratio of CBD:THC compared to the Control group: 1.76%
  alpha bisabolol change compared to the Control group: decreased
Seedling mold
  seedling mold growth: inhibited
